The results in this text go back to patent publication US8058276B2, “Heterobicyclic carboxamides as inhibitors for kinases” (Novartis AG, priority 2006, dated 2011).

A word on the melting point: it is the temperature of the solid-liquid transition. With `CN1CCN(Cc2ccc(NC(=O)c3nsc4cc(Oc5ccnc(N)n5)ccc34)cc2C(F)(F)F)CC1` [Example 7, 6-(2-Amino-pyrimidin-4-yloxy)-benzo[d]isothiazole-3-carboxylic acid [4-(4-methyl-piperazin-1-ylmethyl)-3-trifluoromethyl-phenyl]-amide], the melting point was 215 to 217 °C.
As for `O=C(Nc1ccc(F)c(C(F)(F)F)c1)c1csc2cc(Oc3cc(CO)ncn3)ccc12` [Example 19, 6-(6-Hydroxymethyl-pyrimidin-4-yloxy)-benzo[b]thiophene-3-carboxylic acid (4-fluoro-3-trifluoromethyl-phenyl)-amide], the figure is 138 to 140 °C; as for `Nc1nccc(Oc2ccc3c(C(=O)Nc4cccc(C(F)(F)F)c4)cnn3c2)n1` [Example 15, 6-(2-Amino-pyrimidin-4-yloxy)-pyrazolo[1,5-a]pyridine-3-carboxylic acid (3-trifluoromethyl-phenyl)-amide], 102 to 104 °C; as for `Nc1nccc(Oc2ccc3c(C(=O)Nc4ccc(F)c(C(F)(F)F)c4)nsc3c2)n1` [Example 6, 6-(2-Amino-pyrimidin-4-yloxy)-benzo[d]isothiazole-3-carboxylic acid (4-fluoro-3-trifluoromethyl-phenyl)-amide], 237 to 239 °C.
As for `O=C(Nc1cccc(C(F)(F)F)c1)c1coc2cc(Oc3cc(CO)ncn3)ccc12` [Example 22, 6-(6-Hydroxymethyl-pyrimidin-4-yloxy)-benzofuran-3-carboxylic acid (3-trifluoromethyl-phenyl)-amide], the figure is 181 to 182 °C.
